≈ marks a conversion by molar mass, not a printed value.
How the values were obtained:
Escherichia coli = experiment: in vitro antibacterial evaluation, MIC by broth dilution; assay type: cell-based; conditions: 18 hours at 35° C.
Streptococcus sp. = experiment: as above; assay type: cell-based; conditions: broth dilution, 18 hours at 35° C.
Procedure, shortened: (§1)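 Read-out: the lowest concentration at which the test strain fails to grow. Serial dilutions (64-0.06 μg/mL) in Muller-Hinton II […], 5×10^5 CFU/mL inoculum, NCCLS M7-A2 procedure.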

Enterococcus sp. = experiment: as above; assay type: cell-based; conditions: broth dilution, 18 hours at 35° C.
Procedure, shortened: as §1

Staphylococcus sp. = experiment: as above; assay type: cell-based; conditions: broth dilution, 18 hours at 35° C.
Procedure, shortened: as §1

[1] = anatomic pathology (histopathology of heart and kidney) in mice; assay type: in vivo; conditions: CD-1 mice, 20 mg/kg intravenously daily for 9 days, necropsy day 10, microscopic histopathology
Protocol: Samples of tissues from necropsied mice were formalin-fixed, paraffin-embedded, sectioned, stained with hematoxylin and eosin, and examined microscopically. Histopathologic findings were recorded. These findings were subjectively graded on a scale corresponding to slight, mild, moderate, marked and severe as compared to untreated controls.

[2] = test system: Staphylococcus aureus-SMITH (GC 4543); experiment: acute lethal infection in mice; assay type: in vivo; conditions: acute lethal infection, female CD-1 mice, intraperitoneal challenge, intravenous 30 min. after infection, 7 day survival
Procedure, shortened: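 Survival at 7 days, pooled from three independent tests, yields ED50 values. Treatment is intravenous, 30 min after ip infection of female CD-1 mice, using an inoculum lethal to untreated controls within 24-48 hr.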

N=C1NCC(C(O)C2NC(=O)C(Cc3ccc(OC4OC(CO)C(OC5OC6COC7(OC6C(O)C5O)C5CC6CC(C5)CC7C6)C(O)C4O)cc3)NC(=O)C(Cc3ccccc3)NC(=O)CNC(=O)C(CO)NC(=O)C(C(O)C3CNC(=N)N3C3OC(CO)C(O)C(O)C3O)NC2=O)N1 (stereo not drawn) [Example 220]
MIC Escherichia coli (ATCC 25922) (Escherichia coli): 32 µg/mL (≈ 22.6 µM)
MIC Escherichia coli (GC 4559) (Escherichia coli): 16 µg/mL (≈ 11.3 µM)
MIC Escherichia coli (GC 4560) (Escherichia coli): 0.5 µg/mL (≈ 0.354 µM)
MIC Streptococcus agalactiae (GC 4564) (Streptococcus sp.): <0.06 µg/mL
MIC Streptococcus pneumoniae (ATCC 6301) (Streptococcus sp.): <0.06 µg/mL
MIC Streptococcus pneumoniae (GC 1894) (Streptococcus sp.): <0.06 µg/mL
MIC Streptococcus pneumoniae (GC 4565) (Streptococcus sp.): <0.06 µg/mL
MIC Streptococcus pyogenes (GC 4563) (Streptococcus sp.): <0.06 µg/mL
MIC Streptococcus pneumoniae (ATCC 6301) (Streptococcus sp.; inoculum 5×10^5 CFU/mL, strain ATCC 6301): <0.06 µg/mL
MIC Streptococcus pneumoniae (GC 1894) (Streptococcus sp.; inoculum 5×10^5 CFU/mL, strain GC 1894): <0.06 µg/mL
MIC Streptococcus pyogenes (GC 4563) (Streptococcus sp.; inoculum 5×10^5 CFU/mL, strain GC 4563): <0.06 µg/mL
MIC Streptococcus agalactiae (GC 4564) (Streptococcus sp.; inoculum 5×10^5 CFU/mL, strain GC 4564): <0.06 µg/mL
MIC Streptococcus pneumoniae (GC 4565) (Streptococcus sp.; inoculum 5×10^5 CFU/mL, strain GC 4565): <0.06 µg/mL
MIC Enterococcus avium (GC 4558) (Enterococcus sp.): 2 µg/mL (≈ 1.41 µM)
MIC Enterococcus faecalis (ATCC 29212) (Enterococcus sp.): 2 µg/mL (≈ 1.41 µM)
MIC Enterococcus faecalis (GC 2242) (Enterococcus sp.): 1 µg/mL (≈ 0.707 µM)
MIC Enterococcus faecalis (GC 2691) (Enterococcus sp.): 2 µg/mL (≈ 1.41 µM)
MIC Enterococcus faecalis (GC 3059) (Enterococcus sp.): 2 µg/mL (≈ 1.41 µM)
MIC Enterococcus faecalis (GC 4552) (Enterococcus sp.): 2 µg/mL (≈ 1.41 µM)
MIC Enterococcus faecalis (GC 4553) (Enterococcus sp.): 1 µg/mL (≈ 0.707 µM)
MIC Enterococcus faecalis (GC 4554) (Enterococcus sp.): 2 µg/mL (≈ 1.41 µM)
MIC Enterococcus faecalis (GC 6189) (Enterococcus sp.): 1 µg/mL (≈ 0.707 µM)
MIC Enterococcus faecium (GC 2243) (Enterococcus sp.): 1 µg/mL (≈ 0.707 µM)
MIC Enterococcus faecium (GC 4556) (Enterococcus sp.): 1 µg/mL (≈ 0.707 µM)
MIC Enterococcus faecium (GC 4557) (Enterococcus sp.): 1 µg/mL (≈ 0.707 µM)
MIC Enterococcus faecalis (ATCC 29212) (Enterococcus sp.; inoculum 5×10^5 CFU/mL, strain ATCC 29212): 2 µg/mL (≈ 1.41 µM)
MIC Enterococcus faecalis (GC 2242) (Enterococcus sp.; inoculum 5×10^5 CFU/mL, strain GC 2242): 1 µg/mL (≈ 0.707 µM)
MIC Enterococcus faecium (GC 2243) (Enterococcus sp.; inoculum 5×10^5 CFU/mL, strain GC 2243): 1 µg/mL (≈ 0.707 µM)
MIC Enterococcus faecalis (GC 2691) (Enterococcus sp.; inoculum 5×10^5 CFU/mL, strain GC 2691): 2 µg/mL (≈ 1.41 µM)
MIC Enterococcus faecalis (GC 3059) (Enterococcus sp.; inoculum 5×10^5 CFU/mL, strain GC 3059): 2 µg/mL (≈ 1.41 µM)
MIC Enterococcus faecalis (GC 4552) (Enterococcus sp.; inoculum 5×10^5 CFU/mL, strain GC 4552): 2 µg/mL (≈ 1.41 µM)
MIC Enterococcus faecalis (GC 4553) (Enterococcus sp.; inoculum 5×10^5 CFU/mL, strain GC 4553): 1 µg/mL (≈ 0.707 µM)
MIC Enterococcus faecalis (GC 4554) (Enterococcus sp.; inoculum 5×10^5 CFU/mL, strain GC 4554): 2 µg/mL (≈ 1.41 µM)
MIC Enterococcus faecium (GC 4556) (Enterococcus sp.; inoculum 5×10^5 CFU/mL, strain GC 4556): 1 µg/mL (≈ 0.707 µM)
MIC Enterococcus faecium (GC 4557) (Enterococcus sp.; inoculum 5×10^5 CFU/mL, strain GC 4557): 1 µg/mL (≈ 0.707 µM)
MIC Enterococcus avium (GC 4558) (Enterococcus sp.; inoculum 5×10^5 CFU/mL, strain GC 4558): 2 µg/mL (≈ 1.41 µM)
MIC Enterococcus faecalis (GC 6189) (Enterococcus sp.; inoculum 5×10^5 CFU/mL, strain GC 6189): 1 µg/mL (≈ 0.707 µM)
MIC Staphylococcus aureus (ATCC 29213) (Staphylococcus sp.; strain ATCC 29213): 0.5 µg/mL (≈ 0.354 µM)
MIC Staphylococcus aureus (GC 1131) (Staphylococcus sp.; strain GC 1131): 1 µg/mL (≈ 0.707 µM)
MIC Staphylococcus aureus (GC 3051) (Staphylococcus sp.; strain GC 3051): 1 µg/mL (≈ 0.707 µM)
MIC Staphylococcus aureus (GC 3053) (Staphylococcus sp.; strain GC 3053): 1 µg/mL (≈ 0.707 µM)
MIC Staphylococcus aureus (GC 4541) (Staphylococcus sp.; strain GC 4541): 1 µg/mL (≈ 0.707 µM)
MIC Staphylococcus aureus (GC 4542) (Staphylococcus sp.; strain GC 4542): 0.5 µg/mL (≈ 0.354 µM)
MIC Staphylococcus aureus-SMITH (GC 4543) (Staphylococcus sp.; strain GC 4543): 1 µg/mL (≈ 0.707 µM)
MIC Staphylococcus aureus (GC 4544) (Staphylococcus sp.; strain GC 4544): 1 µg/mL (≈ 0.707 µM)
MIC Staphylococcus aureus (GC 4545) (Staphylococcus sp.; strain GC 4545): 0.5 µg/mL (≈ 0.354 µM)
MIC Staphylococcus haemolyticus (GC 4546) (Staphylococcus sp.; strain GC 4546): 0.25 µg/mL (≈ 0.177 µM)
MIC Coagulase Negative Staphylococcus (GC 4547) (Staphylococcus sp.; strain GC 4547): 0.5 µg/mL (≈ 0.354 µM)
MIC Coagulase Negative Staphylococcus (GC 4548) (Staphylococcus sp.; strain GC 4548): 0.25 µg/mL (≈ 0.177 µM)
MIC Coagulase Negative Staphylococcus (GC 4549) (Staphylococcus sp.; strain GC 4549): 0.25 µg/mL (≈ 0.177 µM)
MIC Coagulase Negative Staphylococcus (GC 4551) (Staphylococcus sp.; strain GC 4551): 0.5 µg/mL (≈ 0.354 µM)
Anatomical Pathology (Day 10), Heart [1]: 0
Anatomical Pathology (Day 10), Kidney [1]: +++
median effective dose (ED50), Staphylococcus aureus-SMITH (GC 4543) [2]: 0.19 mg/kg
